Reference: patent US10071979B2, “Process of producing cycloalkylcarboxamido-indole compounds” (Vertex Pharmaceuticals Incorporated, priority 2010, dated 2018)

Target: T1, ΔF508-CFTR (Homo sapiens, UniProt P13569, DEL508-508)
T1 construct: expressed in transfected cells
Experiment: Assays for detecting and measuring ΔF508-CFTR correction properties (membrane potential optical assay, FRET voltage-sensor dyes)
Format: cell-based
Details: NIH3T3 mouse fibroblasts stably expressing ΔF508-CFTR; percent activity bins
From the text: Assays for Detecting and Measuring ΔF508-CFTR Correction Properties of Compounds
Membrane Potential Optical Methods for Assaying ΔF508-CFTR Modulation Properties of Compounds
The optical membrane potential assay utilized voltage-sensitive FRET sensors described by Gonzalez and Tsien (See, Gonzalez, J. E. and R. Y. Tsien (1995) “Voltage sensing by fluorescence resonance energy transfer in single cells” Biophys J 69(4): 1272-80, and Gonzalez, J. E. and R. Y. Tsien (1997) “Improved indicators of cell membrane potential that use fluorescence resonance energy transfer” Chem Biol 4(4): 269-77) in combination with instrumentation for measuring fluorescence changes such as the Voltage/Ion Probe Reader (VIPR) (See, Gonzalez, J. E., K. Oades, et al. (1999) “Cell-based assays and instrumentation for screening ion-channel targets” Drug Discov Today 4(9): 431-439).
These voltage sensitive assays are based on the change in fluorescence resonant energy transfer (FRET) between the membrane-soluble, voltage-sensitive dye, DiSBAC2(3), and a fluorescent phospholipid, CC2-DMPE, which is attached to the outer leaflet of the plasma membrane and acts as a FRET donor. […] The changes in fluorescence emission were monitored using VIPR™ II, which is an integrated liquid handler and fluorescent detector designed to conduct cell-based screens in 96- or 384-well microtiter plates. […]

T1 sequence (P13569 with tags, fused parts or gaps DEL508-508): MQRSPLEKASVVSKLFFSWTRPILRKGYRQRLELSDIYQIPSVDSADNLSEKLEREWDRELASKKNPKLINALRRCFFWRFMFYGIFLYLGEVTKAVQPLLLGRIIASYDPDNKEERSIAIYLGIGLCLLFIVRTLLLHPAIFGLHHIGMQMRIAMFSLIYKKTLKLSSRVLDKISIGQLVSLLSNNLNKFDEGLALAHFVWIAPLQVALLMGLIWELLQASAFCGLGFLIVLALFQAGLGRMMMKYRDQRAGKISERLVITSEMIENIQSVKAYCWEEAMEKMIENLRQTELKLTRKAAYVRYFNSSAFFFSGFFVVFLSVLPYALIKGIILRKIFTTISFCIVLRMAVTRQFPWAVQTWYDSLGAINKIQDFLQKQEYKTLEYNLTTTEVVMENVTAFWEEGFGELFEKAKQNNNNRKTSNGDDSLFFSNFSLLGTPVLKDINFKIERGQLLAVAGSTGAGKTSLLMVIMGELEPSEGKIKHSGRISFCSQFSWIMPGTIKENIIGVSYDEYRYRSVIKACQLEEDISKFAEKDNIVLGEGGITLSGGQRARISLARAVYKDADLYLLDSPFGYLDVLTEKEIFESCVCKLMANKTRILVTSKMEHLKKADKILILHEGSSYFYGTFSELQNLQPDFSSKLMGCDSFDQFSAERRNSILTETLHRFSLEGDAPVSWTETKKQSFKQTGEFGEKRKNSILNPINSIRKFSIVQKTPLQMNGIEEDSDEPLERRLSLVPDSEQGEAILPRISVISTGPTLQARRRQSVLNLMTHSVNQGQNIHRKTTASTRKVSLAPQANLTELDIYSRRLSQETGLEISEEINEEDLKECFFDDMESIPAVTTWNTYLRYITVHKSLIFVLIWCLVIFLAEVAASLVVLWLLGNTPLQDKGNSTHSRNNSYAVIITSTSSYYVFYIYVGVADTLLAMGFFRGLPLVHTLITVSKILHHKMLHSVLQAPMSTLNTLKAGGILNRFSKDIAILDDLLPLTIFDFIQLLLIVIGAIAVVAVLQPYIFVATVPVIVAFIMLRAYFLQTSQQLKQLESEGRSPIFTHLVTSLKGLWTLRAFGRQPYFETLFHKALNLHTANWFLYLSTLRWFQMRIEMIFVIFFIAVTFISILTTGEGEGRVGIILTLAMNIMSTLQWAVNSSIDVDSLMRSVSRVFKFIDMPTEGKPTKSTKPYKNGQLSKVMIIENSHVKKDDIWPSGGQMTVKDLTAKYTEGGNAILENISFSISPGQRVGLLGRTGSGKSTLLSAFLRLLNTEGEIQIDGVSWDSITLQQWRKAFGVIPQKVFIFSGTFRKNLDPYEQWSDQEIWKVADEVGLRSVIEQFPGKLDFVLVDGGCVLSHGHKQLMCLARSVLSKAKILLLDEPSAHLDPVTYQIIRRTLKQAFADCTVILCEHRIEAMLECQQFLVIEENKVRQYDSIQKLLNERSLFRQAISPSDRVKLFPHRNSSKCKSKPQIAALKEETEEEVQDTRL

In the case of CC(C)(CO)c1cc2cc(NC(=O)C3(c4ccc5c(c4)OC(F)(F)O5)CC3)c(F)cc2n1C[C@@H](O)CO [Compound 1, (R)-1-(2,2-difluorobenzo[d][1,3]dioxol-5-yl)-N-(1-(2,3-dihydroxypropyl)-6-fluoro-2-(1-hydroxy-2-methylpropan-2-yl)-1H-indol-5-yl)cyclopropanecarboxamide], the “Binned MaxEfficacy (PercentActivity)” value is reported as “+++ (100.0 < +++)”.
